The values that follow come from the NIST ThermoML archive (doi:10.1016/j.tca.2019.178375).

± gives the expanded uncertainty stated by the source.

The conditions of series [1]: Crystal; DTA.
Series [2] can be described thus: Molar enthalpy of transition or fusion. Particulars: Crystal; DSC.

Regarding `Cl.c1ccc([C@H]2CN3CCSC3=N2)cc1` [(-)-Levamisole hydrochloride], the Normal melting temperature in series [1] was 227.00 ± 4 °C. For the same molecule, in series [2], the “Molar enthalpy of transition or fusion” value was 7.63 ± 0.478 kcal/mol.
